This is an account of results in US20240279236A1, “COMPOUNDS AND METHODS OF TREATING TUBERCULOSIS” (Fimbrion Therapeutics, Inc., priority 2021, published 2024).

This experiment concerns WT Mtb Erdman strain. The experiment is described as follows: Microplate Alamar Blue Assay (MABA), Mtb growth inhibition. Format: cell-based, Mycobacterium tuberculosis. The conditions noted are these: Mycobacterium tuberculosis, ERDMAN, 168 h, Middlebrook 7H9 media, 7 days at 37° C. in 5% CO2. For orientation: Resazurin is reduced to fluorescent resorufin, in cell work by metabolically active cells.
Take `CCc1nc(NCCCc2ccc(-c3ccc(Cl)cc3Cl)cc2)c2cc(C)sc2n1` [Example 300, N-(3-(2′,4′-dichloro-[1,1′-biphenyl]-4-yl)propyl)-2-ethyl-6-methylthieno[2,3-d]pyrimidin-4-amine]: the IC50 (usually the concentration that gives 50% inhibition) worked out at 76 nM.
Regarding `CCc1nc(NCCCc2ccc(-c3ccnnc3)cc2)c2cc(C)sc2n1` [Example 375, 2-ethyl-6-methyl-N-(3-(4-(pyridazin-4-yl)phenyl)propyl) thieno[2,3-d]pyrimidin-4-amine], the IC50 is 860 nM.
`Cc1cc2c(NCCCc3ccc(-c4ccc(OC(F)(F)F)cc4)cc3)nc(C(F)(F)F)nc2s1` [Example 267, 6-methyl-N-(3-(4′-(trifluoromethoxy)-[1,1′-biphenyl]-4-yl)propyl)-2-(trifluoromethyl)-thieno[2,3-d]pyrimidin-4-amine] had an IC50 of 300 nM.
For `Cc1cc2c(NCCCc3ccc(OC(F)(F)F)cc3)nc(-c3cnsc3)nc2s1` [Example 125, 2-(isothiazol-4-yl)-6-methyl-N-(3-(4-(trifluoromethoxy)phenyl)propyl)thieno [2,3-d]pyrimidin-4-amine], the IC50 was determined as 610 nM.
Under `Cc1cc2c(NCCCc3ccccc3)nc(C3CCOC3)nc2s1` (stereo not shown) [Example 120, 6-methyl-N-(3-phenylpropyl)-2-(tetrahydrofuran-3-yl)thieno[2,3-d]pyrimidin-4-amine] stands 3000 nM; under `FC(F)(F)Oc1ccc(-c2ccc(CCCNc3nc(Cl)nc4scnc34)cc2)cc1` [Example 468, 5-chloro-N-(3-(4′-(trifluoromethoxy)-[1,1′-biphenyl]-4-yl)propyl)thiazolo[5,4-d]pyrimidin-7-amine], 690 nM; under `COc1ccc(CCCNc2nc(Cl)nc3sccc23)cc1` [Example 219, 2-chloro-N-(3-(4-methoxyphenyl)propyl)thieno[2,3-d]pyrimidin-4-amine], greater than 7700 nM.
For `Cc1cc2c(NCCCc3ccccc3)nc(N3CCSC3)nc2s1` [Example 519, 6-methyl-N-(3-phenylpropyl)-2-(thiazolidin-3-yl)thieno[2,3-d]pyrimidin-4-amine] the value was 900 nM; for `Cc1cc2c(NCCCc3ccc(-c4ccc(OC5CC5)cc4)cc3)nc(-c3ccoc3)nc2s1` [Example 326, N-(3-(4′-cyclopropoxy-[1,1′-biphenyl]-4-yl)propyl)-2-(furan-3-yl)-6-methylthieno[2,3-d]pyrimidin-4-amine], 15 nM.
In the case of `Cc1cc2c(NCCCc3ccccc3)nc(C(C)Cl)nc2s1` (stereo not shown) [Example 135, 2-(1-chloroethyl)-6-methyl-N-(3-phenylpropyl)thieno [2,3-d]pyrimidin-4-amine], the IC50 was found to be 230 nM.
`Cc1nc2c(N[C@@H]3C[C@H]3c3ccc(F)c(F)c3)nc(-c3ccc(F)cn3)nc2s1` [Example 146, N-((1R,2S)-2-(3,4-difluorophenyl)cyclopropyl)-5-(5-fluoropyridin-2-yl)-2-methylthiazolo[5,4-d]pyrimidin-7-amine] showed an IC50 of 5100 nM.
Under `COc1ccccc1-c1nc(N[C@@H]2C[C@H]2c2ccc(F)c(F)c2)c2cc(C)sc2n1` [Example 496, N-((1R,2S)-2-(3,4-difluorophenyl)cyclopropyl)-2-(2-methoxyphenyl)-6-methylthieno[2,3-d]pyrimidin-4-amine] stands greater than 10000 nM.
Compound `Cc1cc2c(NCCCc3ccc(-c4cccs4)cc3)nc(-c3ccoc3)nc2s1` [Example 330, 2-(furan-3-yl)-6-methyl-N-(3-[4-(thiophen-2-yl)phenyl]propyl) thieno[2,3-d]pyrimidin-4-amine] yielded an IC50 of less than 5 nM.
For `Cc1cc2c(NCCCCc3ccc(Br)cc3)nc(-c3ccoc3)nc2s1` [Example 207, N-(4-(4-bromophenyl)butyl)-2-(furan-3-yl)-6-methylthieno[2,3-d]pyrimidin-4-amine] the value was 350 nM; for `CCN(CC)c1nc(NCCCc2ccccc2)c2cc(C)sc2n1` [Example 520, N2,N2-diethyl-6-methyl-N4-(3-phenylpropyl)thieno[2,3-d]pyrimidine-2,4-diamine], greater than 10000 nM; for `CCc1nc(NCCCc2cccc(Br)c2)c2cc(C)sc2n1` [Example 202, N-(3-(3-bromophenyl)propyl)-2-ethyl-6-methylthieno[2,3-d]pyrimidin-4-amine], 260 nM.
For `CCc1nc(NCCCc2ccc(C(F)(F)F)cc2)c2cc(C)sc2n1` [Example 3, 2-ethyl-6-methyl-N-(3-(4-(trifluoromethyl)phenyl)propyl)thieno [2,3-d]pyrimidin-4-amine] the value was 280 nM.
Under `Cc1nc2c(N[C@@H]3C[C@H]3c3ccc(F)c(F)c3)nc(-c3ccncn3)nc2s1` [Example 148, N-((1R,2S)-2-(3,4-difluorophenyl)cyclopropyl)-2-methyl-5-(pyrimidin-4-yl)thiazolo[5,4-d]pyrimidin-7-amine] stands greater than 10000 nM; under `CCc1nc(NCCCc2ccc(-c3ccc(OC(F)(F)F)cn3)cc2)c2cc(C)sc2n1` [Example 376, 2-ethyl-6-methyl-N-(3-(4-(5-(trifluoro-methoxy)pyridin-2-yl)phenyl)propyl)thieno [2,3-d]pyrimidin-4-amine], 55 nM; under `Cc1cc2c(NCCCc3ccc(-c4ccc(OC(F)(F)F)cc4)nc3)nc(C(F)(F)F)nc2s1` [Example 262, 6-methyl-N-(3-(6-(4-(trifluoromethoxy)phenyl)pyridin-3-yl)propyl)-2-(trifluoromethyl) thieno[2,3-d]pyrimidin-4-amine;], 470 nM.
`Cc1cc2c(NCCCc3ccccc3)nc(-c3ncco3)nc2s1` [Example 57, 6-methyl-2-(oxazol-2-yl)-N-(3-phenylpropyl)thieno [2,3-d]pyrimidin-4-amine]: the IC50 was found to be 4100 nM.
Compound `CCc1nc(NCCCc2ccc(-c3ccc(C4CC4)cc3)cc2)c2cc(C)sc2n1` [Example 302, N-(3-(4′-cyclopropyl-[1,1′-biphenyl]-4-yl)propyl)-2-ethyl-6-methylthieno[2,3-d]pyrimidin-4-amine] came in with an IC50 of 27 nM.
Consider `Cc1cc2c(NCCCc3ccc(OC(F)(F)F)cc3)nc(-c3ccncn3)nc2s1` [Example 79, 6-methyl-2-(pyrimidin-4-yl)-N-(3-(4-(trifluoromethoxy)phenyl)propyl)thieno [2,3-d]pyrimidin-4-amine], for which inhibition was half-maximal at 480 nM (IC50). This IC50 lies about 18-fold higher than the previous one.
As to `CCc1nc(NCCCc2ccccc2O)c2cc(C)sc2n1` [Example 588, 2-(3-((2-ethyl-6-methylthieno[2,3-d]pyrimidin-4-yl)amino)propyl)phenol], the IC50 amounted to 4400 nM. This IC50 is about 9.2-fold higher than that of the compound before.
Under `CCc1nc(NCCCc2ccco2)c2cc(C)sc2n1` [Example 24, 2-ethyl-N-(3-(furan-2-yl)propyl)-6-methylthieno[2,3-d]pyrimidin-4-amine] stands 1000 nM; under `CCc1nc(N[C@@H]2C[C@H]2c2ccc(F)c(F)c2)c2cc(C)sc2n1` [Example 4, N-((1R,2S)-2-(3,4-difluorophenyl)cyclopropyl)-2-ethyl-6-methylthieno[2,3-d]pyrimidin-4-amine], 300 nM; under `CNC(=O)c1nc(NCCCc2ccc(OC(F)(F)F)cc2)c2cc(C)sc2n1` [Example 564, N,6-dimethyl-4-((3-(4-(trifluoromethoxy)phenyl)propyl)amino)thieno[2,3-d]pyrimidine-2-carboxamide], 1200 nM.
Consider `Cc1cc2c(NCCCc3ccc(-c4cncc(C(F)(F)F)n4)cc3)nc(-c3ccoc3)nc2s1` [Example 383, 2-(furan-3-yl)-6-methyl-N-(3-(4-[6-(trifluoromethyl)pyrazin-2-yl]phenyl)propyl) thieno[2,3-d]pyrimidin-4-amine], for which the IC50 came to 230 nM. This IC50 lies about 5.2-fold lower than the previous one.
On to `FC(F)(F)Oc1ccc(-c2ccc(CCCNc3nc(Cl)nc4sccc34)cc2)cc1` [Example 467, 2-chloro-N-(3-(4′-(trifluoromethoxy)-[1,1′-biphenyl]-4-yl)propyl)thieno[2,3-d]pyrimidin-4-amine], for which 200 nM corresponded to half-maximal inhibition (IC50).
For `Cc1cc2c(NCCCc3ccc(-c4cccnc4)cc3)nc(C(F)(F)F)nc2s1` [Example 293, 6-methyl-N-(3-(4-(pyridin-3-yl)phenyl)propyl)-2-(trifluoromethyl) thieno [2,3-d]pyrimidin-4-amine] the value was 2500 nM; for `Fc1ccc([C@@H]2C[C@H]2Nc2nc(-c3ccccn3)nc3sc(C(F)(F)F)cc23)cc1F` [Example 45, N-((1R,2S)-2-(3,4-difluorophenyl)cyclopropyl)-2-(pyridin-2-yl)-6-(trifluoromethyl)thieno [2,3-d]pyrimidin-4-amine], 2800 nM.
Under `CCc1nc(NCCCc2ccc(-c3ccc(F)c(Cl)c3)cc2)c2cc(C)sc2n1` [Example 309, N-(3-(3′-chloro-4′-fluoro-[1,1′-biphenyl]-4-yl)propyl)-2-ethyl-6-methylthieno[2,3-d]pyrimidin-4-amine] stands 100 nM.
Under `CCc1nc(NCCNc2ccccc2)c2cc(C)sc2n1` [Example 62, N1-(2-ethyl-6-methylthieno[2,3-d]pyrimidin-4-yl)-N2-phenylethane-1,2-diamine] stands 810 nM; under `Cc1cc2c(NCCCc3ccc(N=[N+]=[N-])cc3)nc(C(F)(F)F)nc2s1` [Example 592, N-(3-(4-azidophenyl)propyl)-6-methyl-2-(trifluoromethyl)thieno[2,3-d]pyrimidin-4-amine], 4400 nM.
For `Cc1cc2c(NCCCc3ccccc3)nc(C3CCCCC3)nc2s1` [Example 95, 2-cyclohexyl-6-methyl-N-(3- |phenylpropyl)thieno [2,3-d]pyrimidin-4-amine], the IC50 is greater than 10000 nM.
As for `Cc1cc2c(N[C@@H]3C[C@H]3c3ccc(F)c(F)c3)nc(-c3cccnc3)nc2s1` [Example 44, N-((1R,2S)-2-(3,4-difluorophenyl)cyclopropyl)-6-methyl-2-(pyridin-3-yl)thieno[2,3-d]pyrimidin-4-amine], the IC50 worked out at 6300 nM.
As for `Cc1cc2c(NCCCc3ccc(F)cc3)nc(C(F)(F)F)nc2s1` [Example 185, N-(3-(4-fluorophenyl)propyl)-6-methyl-2-(trifluoromethyl) thieno[2,3-d] pyrimidin-4-amine], half-maximal inhibition (IC50) was put at 2300 nM.
